# Reference: publication PMC8571487 (Biochemistry and Biophysics Reports, 2021)
# Target: T1, NcFADS (Neurospora crassa, UniProt Q7SCU7)
# T1 sequence (Q7SCU7 49-318): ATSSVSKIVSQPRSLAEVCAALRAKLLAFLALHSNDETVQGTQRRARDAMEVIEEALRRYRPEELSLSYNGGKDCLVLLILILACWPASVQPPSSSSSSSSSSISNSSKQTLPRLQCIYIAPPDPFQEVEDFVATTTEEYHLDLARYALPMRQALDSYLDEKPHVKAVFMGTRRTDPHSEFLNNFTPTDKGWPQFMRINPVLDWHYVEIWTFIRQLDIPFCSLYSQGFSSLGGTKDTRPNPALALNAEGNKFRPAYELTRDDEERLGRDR
# Assay: isothermal titration calorimetry
# Format: binding
row,Kd,SMILES
1,20.8 µM,Cc1cc2nc3c(=O)[nH]c(=O)nc-3n(C[C@H](O)[C@H](O)[C@H](O)COP(=O)(O)O)c2cc1C [FMN]
2,16.6 µM,Nc1ncnc2c1ncn2[C@@H]1O[C@H](COP(=O)(O)OP(=O)(O)OP(=O)(O)O)[C@@H](O)[C@H]1O [MgATP^2−]
